Assay: Drug-drug interaction study between pulsed, inhaled nitric oxide and sildenafil in healthy volunteers
Experimental: Inhaled Nitric Oxide (iNO) has been approved for use in infants with hypoxic respiratory failure. Nitric oxide is a selective pulmonary vasodilator, whose action is mediated by the cyclic guanosine monophosphate (cGMP) pathway. […] The objective of this study is to investigate the potential pharmacodynamic interaction between pulsed iNO and sildenafil in healthy volunteers.
Five healthy volunteers received sildenafil for 24 hours prior to the addition of iNO. Changes in pharmacodynamics parameters such as Heart Rate, Blood Pressure, and Oxygen Saturation after dosing with both drugs was assessed for 27 hours and hourly for 4 hours post iNO discontinuation.
FIG. 7 illustrates the protocol design for this study. Briefly, on Day 1, subjects were dosed with sildenafil alone. One dose of 20 mg sildenafil was administered every […] on day 1 for a total of 3 doses on day 1. Vital signs (heart rate, blood pressure, and oxygen saturation) were assessed beginning 1 hour prior to administration of sildenafil and every 30 minutes until 2.5 hours after each dose of sildenafil. Adverse events were also monitored. On days 2-3, the sildenafil regimen was continued as administered on day 1, and supplemented with 27.5 hours of pulsed iNO therapy at 75 mcg/kg individual body weight (IBW)/hr (INOPulse). Vital signs were assessed beginning 1 hour prior to administration of iNO and every 30 minutes until 2.5 hours after each dose of sildenafil. Upon discontinuation of iNO, vital signs were measured hourly for a 4-hour period, and subjects were monitored for syncope and lightheadedness. Nitric oxide metabolites were measured throughout administration of iNO and for 4 hours post-discontinuation of iNO.

| SMILES | Blood pressure after dosing with sildenafil alone (5 healthy volunteers, 20 mg sildenafil every 6 hours, all 3 doses on day 1, within 2.5 hours after dosing) | Synergistic interaction (hypotensive drug-drug interaction) between iNO and sildenafil (even at peak levels of metabolites, all volunteers) | Other adverse events (iNO 75 mcg/kg IBW/hr co-administered with 20 mg sildenafil) | Syncope, lightheadedness, or signs of rebound upon discontinuation of iNO (monitored for 4 hours after iNO discontinuation, sildenafil background) | Systolic and diastolic blood pressures during co-administration of iNO, compared to first 3 doses of sildenafil alone (pulsed iNO 75 mcg/kg IBW/hr for 27.5 hours with 20 mg sildenafil, sildenafil doses 4 and 5, and peak nitric oxide metabolites (doses 6 and 7)) |
| --- | --- | --- | --- | --- | --- |
| CCCc1nn(C)c2c(=O)[nH]c(-c3cc(S(=O)(=O)N4CCN(C)CC4)ccc3OCC)nc12 [sildenafil] | drop in blood pressure | – | – | – | – |
| [N]=O [iNO, nitric oxide] | – | No synergistic interaction | no other adverse events were identified | no instances of syncope, lightheadedness, or signs of possible rebound | no further decline |

From US20220096535A1, “COMBINATION DRUG THERAPIES OF PDE-5 INHIBITORS AND INHALED NITRIC OXIDE” (BELLEROPHON THERAPEUTICS, priority 2019, published 2022)
